Publication PMC8179539, “Query-guided protein–protein interaction inhibitor discovery” (Chemical Science, 2021)
“And” between values parts separate entries of the source, which are not always exact repeats. Equal entries are not always repeated. Where two headings read alike, the source gives them in different places.

Experiments:
p53/hDM2 = p53/hDM2 (Homo sapiens, UniProt Q00987); experiment: competition fluorescence anisotropy assay, displacement of p53 15-31 Flu from hDM2; assay type: binding; settings: for ligand efficiency: LE = 1.4 × pIC50/nHA, from p53/hDM2 fluorescence anisotropy IC50
GKAP/SHANK1-PDZ = target: T1, GKAP/SHANK1-PDZ (Homo sapiens, UniProt Q9Y566); experiment: fluorescence anisotropy competition assay GKAP/SHANK1-PDZ; assay type: binding; settings: for IC50: FITC-GKAP 50 nM, SHANK1-PDZ 1 μM, pH 7.4, 20 mM Tris, 150 mM NaCl, 0.01% Triton-X-100
T1 construct: Shank 1 PDZ domain (656-762) was expressed and purified as described; made in house
T1 sequence (Q9Y566 656-762): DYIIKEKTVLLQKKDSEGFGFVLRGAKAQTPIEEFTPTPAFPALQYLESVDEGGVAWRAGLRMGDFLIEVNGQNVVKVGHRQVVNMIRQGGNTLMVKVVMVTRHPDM

SHANK1-PDZ = SHANK1-PDZ (Homo sapiens, UniProt Q9Y566); experiment: biochemical
BID/MCL-1 = BID/MCL-1 (Homo sapiens, UniProt Q07820); settings: 200 nM MCL-1, 50 nM FITC-Ahx-NOXA-B tracer (Fig. S10)
[1] = Table S2, SAR competition assays, Plate Reader II, read-out: IC50
[2] = fluorescence anisotropy competition, 150 nM hDM2, 25 nM p53 15-31 Flu, 40 mM phosphate pH 7.4, 200 mM NaCl, 0.02 mg/ml BSA, read-out: IC50
[3] = Fig. 4b, fluorescence anisotropy competition: 150 nM hDM2 and p53 15-31 Flu, 40 mM phosphate, pH 7.4, 200 mM NaCl, 0.02 mg/ml BSA, > 150 μM, read-out: IC50 (Fig. 4b)
[4] = Table S2, SAR competition assays, Plate Reader II, * lower anisotropy observed, attributed to solubility causing assay interference (7a, 7b, 7c), read-out: IC50
[5] = Fig. 4b, same assay, unit inferred, † non-specific interactions observed (11c), read-out: IC50 (Fig. 4b, numbers inside wedges)

| IC50 (p53/hDM2; [1]) | IC50 (p53/hDM2; [2]) | IC50 (p53/hDM2; [4]) | Molecule | further results |
| --- | --- | --- | --- | --- |
| 4.6 ± 0.6 µM | 4.6 µM |  | CC(C(=O)NCCc1ccccn1)C(c1ccc(Cl)s1)c1c[nH]c2ccc(Cl)cc12 (single isomer, unassigned; (-)) [(−)-anti-10] |  |
| > 200 µM |  |  | O=C(CC(c1ccc(Cl)s1)c1c(C(=O)NCc2ccccc2)[nH]c2ccc(Cl)cc12)NCCc1ccccn1 (stereo not drawn) [11h] |  |
| 2.2 ± 0.5 µM | 2.2 µM |  | O=C(CC(c1ccc(Cl)s1)c1c(C(=O)O)[nH]c2ccc(Cl)cc12)NC1CC1c1ccccc1 (stereo not drawn) [compound 14] | IC50 (p53/hDM2; [3]): 2 µM |
| 3.1 ± 0.4 µM | 3.1 µM |  | CC(C(=O)NCCc1ccccn1)C(c1ccc(Cl)s1)c1c[nH]c2ccc(Cl)cc12 (stereo not drawn) [anti-10] | ligand efficiency (p53/hDM2): 0.26 |
| 2.9 ± 0.4 µM | 2.9 µM |  | CC(C(=O)NCCc1ccccn1)C(c1ccc(Cl)s1)c1c[nH]c2ccc(Cl)cc12 (single isomer, unassigned; (+)) [(+)-anti-10] |  |
|  |  | 18 ± 11 µM | O=C(CC(c1ccc(Cl)s1)c1c[nH]c2cc(Cl)ccc12)NCCc1ccccc1 (stereo not drawn) [8b] |  |
|  |  | 13 ± 2 µM | O=C(CC(c1ccc(Cl)s1)c1c[nH]c2ccc(Cl)cc12)NCCc1ccccc1 (stereo not drawn) [7b] |  |
|  |  |  | NS(=O)(=O)c1ccc2c(c1)[C@@H]1C=CC[C@@H]1[C@H](C(=O)O)N2 [Z-1] | IC50 (GKAP/SHANK1-PDZ): 390 µM; ligand efficiency (LE) (GKAP/SHANK1-PDZ; from GKAP/SHANK1-PDZ fluorescence anisotropy IC50): 0.24 |
| > 200 µM |  |  | CC(C)(C)OC(=O)NCCNC(=O)c1[nH]c2ccc(Cl)cc2c1C(CC(=O)NCCc1ccccn1)c1ccc(Cl)s1 (stereo not drawn) [11g] |  |
|  |  | > 200 µM | COCCNC(=O)CC(c1ccccc1)c1c[nH]c2ccc(Cl)cc12 (stereo not drawn) [9d] |  |
|  |  |  | O=C(O)c1ccc([N+](=O)[O-])c2c1NC(C(=O)O)[C@H]1CC=C[C@@H]21 (stereo partly drawn) [Z-2, reference compound] | IC50 (GKAP/SHANK1-PDZ): ~110 µM |
|  |  | > 200 µM | O=C(CC(c1ccccc1)c1c[nH]c2ccc(Cl)cc12)NCCc1ccccc1 (stereo not drawn) [9b] |  |
| 1.7 ± 0.2 µM | 1 µM |  | O=C(CC(c1ccc(Cl)s1)c1c(Br)[nH]c2cc(Cl)ccc12)NCCc1ccccn1 (stereo not drawn) [11a] | IC50 (p53/hDM2; [5]): 2 µM; ligand efficiency (p53/hDM2): 0.28 |
| 25 ± 4 µM | 25 µM |  | NCCNC(=O)c1[nH]c2ccc(Cl)cc2c1C(CC(=O)NCCc1ccccn1)c1ccc(Cl)s1 (stereo not drawn) [11f] |  |
| 2.9 ± 0.2 µM |  |  | O=C(CC(c1ccc(Cl)s1)c1c(C(=O)O)[nH]c2ccc(Cl)cc12)NCCc1ccccn1 (stereo not drawn) [11b] | IC50 (p53/hDM2; [5]): 3 µM; ligand efficiency (p53/hDM2): 0.26 |
| 12 ± 9 µM |  |  | O=C(CC(c1ccc(Cl)s1)c1c(Br)[nH]c2ccc(Cl)cc12)NCCc1ccccn1 (stereo not drawn) [11d] |  |
| 8 ± 4 µM | ~8 µM |  | CC(C)(C(=O)NCCc1ccccn1)C(c1ccc(Cl)s1)c1c[nH]c2ccc(Cl)cc12 (stereo not drawn) [compound 12] | IC50 (p53/hDM2; [3]): 8 µM |
| 14 ± 2 µM |  |  | O=C(O)CCNC(=O)c1[nH]c2ccc(Cl)cc2c1C(CC(=O)NCCc1ccccn1)c1ccc(Cl)s1 (stereo not drawn) [11e] |  |
|  |  | 86 ± 29 µM | COCCNC(=O)CC(c1ccc(Cl)s1)c1c[nH]c2cc(Cl)ccc12 (stereo not drawn) [8c] |  |
|  |  | > 200 µM | O=C(CC(c1ccccc1)c1c[nH]c2ccc(Cl)cc12)NCCc1ccccn1 (stereo not drawn) [9a] |  |
| 1.2 ± 0.4 µM | 1.2 µM |  | CC(C(=O)N1CCC(c2ccccn2)C1)C(c1ccc(Cl)s1)c1c[nH]c2cc(Cl)ccc12 (stereo not drawn) [compound 13] | IC50 (p53/hDM2; [3]): 1 µM |
|  |  |  | Ac-EAQTRF-OH [L6F GKAP, Ac-Glu-Ala-Gln-Thr-Arg-Phe-CO2H] | Kd (SHANK1-PDZ): 5 µM |
|  |  | > 200 µM | COCCNC(=O)CC(c1ccc(Cl)s1)c1c[nH]c2ccc(Cl)cc12 (stereo not drawn) [7d] |  |
| 21 ± 14 µM |  |  | CC(C(=O)NCCc1ccccn1)C(c1ccc(Cl)s1)c1c[nH]c2ccc(Cl)cc12 (stereo not drawn) [syn-10] |  |
| 3.2 ± 0.7 µM |  |  | CCOC(=O)CCNC(=O)c1[nH]c2ccc(Cl)cc2c1C(CC(=O)NCCc1ccccn1)c1ccc(Cl)s1 (stereo not drawn) [11c] | IC50 (p53/hDM2; [5]): 3 µM |
|  | 7.9 µM and 8 µM | 7.9 ± 0.9 µM | O=C(CC(c1ccc(Cl)s1)c1c[nH]c2ccc(Cl)cc12)NCCc1ccccn1 (stereo not drawn) [A1] | IC50 (p53/hDM2; [5]): 8 µM; ligand efficiency (p53/hDM2): 0.24; inhibition in FA competition assay for BID/MCL-1 (BID/MCL-1): no inhibition |
|  |  | 1.2 ± 1 µM | O=C(CC(c1ccc(Cl)s1)c1c[nH]c2ccc(Cl)cc12)NC1CC1c1ccccc1 (stereo not drawn) [7a] |  |
| > 200 µM |  |  | CC(C)CNC(=O)c1[nH]c2ccc(Cl)cc2c1C(CC(=O)NCCc1ccccn1)c1ccc(Cl)s1 (stereo not drawn) [11i] |  |
|  |  | 5 ± 2 µM | O=C(CC(c1ccc(Cl)s1)c1c[nH]c2ccc(Cl)cc12)NCc1ccccc1 (stereo not drawn) [7c] | p53/hDM2 inhibitory activity in words (SAR) (p53/hDM2; competition anisotropy, SAR discussion): loss of activity |
|  | 6 µM | 10 ± 2 µM | O=C(CC(c1ccc(Cl)s1)c1c[nH]c2cc(Cl)ccc12)NCCc1ccccn1 (stereo not drawn) [8a] |  |
